Experimental data: paper PMC12860872, “Preclinical evaluation of DOTAGA.Glu.(FAPI)2 and DO3A.Glu.(FAPI)2 as theranostics with human dosimetry extrapolation to lutetium-177 and terbium-161 analogs” (European Journal of Nuclear Medicine and Molecular Imaging, 2025)

Key:
[1] = tested on: DPP8; set-up: method as in Martin et al. 2023 (15); conditions: ref Martin et al. 2023 (15); cited from earlier work
[2] = tested on: DPP4; set-up: method as in Martin et al. 2023 (15); conditions: ref Martin et al. 2023 (15); cited from earlier work
[3] = tested on: FAP; set-up: method as in Martin et al. 2023 (15); conditions: enzymatic assay; ref Martin et al. 2023 (15); cited from earlier work
[4] = tested on: PREP; set-up: method as in Martin et al. 2023 (15); conditions: ref Martin et al. 2023 (15); cited from earlier work
[5] = tested on: DPP9; set-up: method as in Martin et al. 2023 (15); conditions: ref Martin et al. 2023 (15); cited from earlier work
[6] = tested on: PC3-mice; assay: Biodistribution in PC3-mice incl. blocking; type: in vivo, mouse; conditions: PC3-model
Method: Male athymic Balb/C nude mice (6 weeks/20–25 g) were implanted with PC3 cells (3.5 × 10^6/100 µL PBS) into their right shoulder to develop tumors. The animals were used for biodistribution and PET/SPECT/CT imaging studies, once tumors reached 250–300 mm^3.
All mice were euthanized with intraperitoneal injection of pentobarbital (150 mg/kg), and selected organs were dissected, weighed, and measured for radioactivity using a gamma-counter. Results are expressed as % injected activity per gram tissue (% I.A./g), presented as mean ± SD (n = 3–4).

N#C[C@@H]1CC(F)(F)CN1C(=O)CNC(=O)c1ccnc2ccc(OCCCCNC(=O)CC[C@H](NC(=O)CCC(C(=O)O)N3CCN(CC(=O)O)CCN(CC(=O)O)CCN(CC(=O)O)CC3)C(=O)NCCCCOc3ccc4nccc(C(=O)NCC(=O)N5CC(F)(F)C[C@H]5C#N)c4c3)cc12 (stereo partly shown) [DOTAGA.Glu.(FAPI)2]
IC50 [1]: 29 ± 4 nM | IC50 [2]: 1190 ± 80 nM | IC50 [3]: 0.26 ± 0.04 nM | IC50 [4]: 590 ± 100 nM | IC50 [5]: 83 ± 1.5 nM | tumor uptake ([6]; labeled with gallium-68): ~ 20% | tumor uptake ([6]; labeled with lutetium-177): ~ 16%

N#C[C@@H]1CC(F)(F)CN1C(=O)CNC(=O)c1ccnc2ccc(OCCCCNC(=O)CC[C@H](NC(=O)CCC(C(=O)O)N3CCN(CC(=O)[O-])CCN(CC(=O)[O-])CCN(CC(=O)[O-])CC3)C(=O)NCCCCOc3ccc4nccc(C(=O)NCC(=O)N5CC(F)(F)C[C@H]5C#N)c4c3)cc12.[Lu+3] (stereo partly shown) [[^natLu]Lu-DOTAGA.Glu.(FAPi)2]
IC50 [1]: 220 ± 20 nM | IC50 [2]: 650 ± 40 nM | IC50 [3]: 0.33 ± 0.02 nM | IC50 [4]: 430 ± 160 nM | IC50 [5]: 190 ± 10 nM

N#C[C@@H]1CC(F)(F)CN1C(=O)CNC(=O)c1ccnc2ccc(OCCCCNC(=O)CC[C@H](NC(=O)CN3CCN(CC(=O)O)CCN(CC(=O)O)CCN(CC(=O)O)CC3)C(=O)NCCCCOc3ccc4nccc(C(=O)NCC(=O)N5CC(F)(F)C[C@H]5C#N)c4c3)cc12 [DO3A.Glu.(FAPI)2]
IC50 [1]: 1030 ± 180 nM | IC50 [2]: 540 ± 60 nM | IC50 [3]: 0.6 ± 0.04 nM | IC50 [4]: 1000 ± 140 nM | IC50 [5]: 950 ± 110 nM | tumor uptake ([6]; labeled with gallium-68): ~ 20% | tumor uptake ([6]; labeled with lutetium-177): ~ 16%
